From US20260125382A1, “COMPOUNDS FOR INHIBITING OR DEGRADING CDK2 AND/OR CDK9 AND MEDICINAL USE THEREOF” (KOREA RESEARCH INSTITUTE OF CHEMICAL TECHNOLOGY, priority 2022, published 2026)

Legend:
CDK9 = target: T1, CDK9 (Homo sapiens, UniProt P50750); assay: CDK protein degradation activity (Western blotting), CDK9; type: cell-based; details: MDA-MB-231 cells, 16 hours, Western blot
T1 construct: endogenous in cells; host or cells: MDA-MB-231
Outline: (§1)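 Degradation is judged from CDK2 and CDK9 band intensity relative to tubulin and DMSO-treated cells, after 16 h exposure of MDA-MB-231 cells to three compound concentrations (100 nM, 1 μM, 10 μM).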

CDK2 = target: T2, CDK2 (Homo sapiens, UniProt P24941); assay: CDK protein degradation activity (Western blotting), CDK2; type: cell-based; details: MDA-MB-231 cells, 16 hours, Western blot
T2 construct: endogenous in cells; host or cells: MDA-MB-231
Outline: as §1

T1 sequence (P50750 whole entry): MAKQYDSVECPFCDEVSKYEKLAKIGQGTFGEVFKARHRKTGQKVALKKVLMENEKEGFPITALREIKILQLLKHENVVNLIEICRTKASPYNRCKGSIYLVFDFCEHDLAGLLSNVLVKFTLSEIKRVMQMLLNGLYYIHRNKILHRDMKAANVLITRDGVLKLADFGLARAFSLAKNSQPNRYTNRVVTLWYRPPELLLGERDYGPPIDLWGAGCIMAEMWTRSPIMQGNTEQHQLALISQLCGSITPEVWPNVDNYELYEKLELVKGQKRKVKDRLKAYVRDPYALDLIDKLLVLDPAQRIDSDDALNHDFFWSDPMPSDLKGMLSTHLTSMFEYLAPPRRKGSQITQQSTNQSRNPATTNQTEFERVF

Compound | Enzyme degradation CDK9 (% remaining) @ 0.1 μM (CDK9) | Enzyme degradation CDK9 (% remaining) @ 1 μM (CDK9) | Enzyme degradation CDK9 (% remaining) @ 10 μM (CDK9) | Enzyme degradation CDK2 (% remaining) @ 0.1 μM (CDK2) | Enzyme degradation CDK2 (% remaining) @ 1 μM (CDK2) | Enzyme degradation CDK2 (% remaining) @ 10 μM (CDK2)
COc1ccc(C(=O)NC[C@H]2CC[C@H](CN3CCN(c4ccc(Nc5ncnc6c5ncn6[C@H]5C[C@@H](NC(=O)Cc6ccccc6)C5)cc4)CC3)CC2)cc1N1CCC(=O)NC1=O [Compound 198, 3-(2,4-dioxotetrahydropyrimidin-1(2H)-yl)-4-methoxy-N-(((1r,4r)-4-((4-(4-((9-((1s,3s)-3-(2-phenylacetamido)cyclobutyl)-9H-purin-6-yl)amino)phenyl)piperazin-1-yl)methyl)cyclohexyl)methyl)benzamide] | 50% | 30% | 10% | 0/0/0% | 0/0/0% | 0/0/0%
O=C1CCN(c2coc3cc(C(=O)NC[C@H]4CC[C@H](CN5CCN(c6ccc(Nc7ncnc8c7ncn8[C@H]7C[C@@H](NC(=O)Cc8ccccc8)C7)cc6)CC5)CC4)ccc23)C(=O)N1 [Compound 199, 3-(2,4-dioxotetrahydropyrimidin-1(2H)-yl)-N-(((1r,4r)-4-((4-(4-((9-((1s,3s)-3-(2-phenylacetamido)cyclobutyl)-9H-purin-6-yl)amino)phenyl)piperazin-1-yl)methyl)cyclohexyl)methyl)benzofuran-6-carboxamide] | 20% | 30% | 30% | 50% | 60% | 50%
O=C(Cc1cccc(NC2=CC(=O)N(C3CCC(=O)NC3=O)C2=O)c1)NC[C@H]1CC[C@H](CN2CCN(c3ccc(Nc4ncnc5c4ncn5[C@H]4C[C@@H](NC(=O)Cc5ccccc5)C4)cc3)CC2)CC1 (stereo partly drawn) [Compound 200, 2-(3-((1-(2,6-dioxopiperidin-3-yl)-2,5-dioxo-2,5-dihydro-1H-pyrrol-3-yl)amino)phenyl)-N-(((1r,4r)-4-((4-(4-((9-((1s,3s)-3-(2-phenylacetamido)cyclobutyl)-9H-purin-6-yl)amino)phenyl)piperazin-1-yl)methyl)cyclohexyl)methyl)acetamide] | 20/20/20% | 20/20/20% | 20/20/20% | 100/100/100% | 100/100/100% | 100/100/100%
O=C1CCC(N2C(=O)C=C(N3CCC(C(=O)NC[C@H]4CC[C@H](CN5CCN(c6ccc(Nc7ncnc8c7ncn8[C@H]7C[C@@H](NC(=O)Cc8ccccc8)C7)cc6)CC5)CC4)CC3)C2=O)C(=O)N1 (stereo partly drawn) [Compound 201, 1-(1-(2,6-dioxopiperidin-3-yl)-2,5-dioxo-2,5-dihydro-1H-pyrrol-3-yl)-N-(((1r,4r)-4-((4-(4-((9-((1s,3s)-3-(2-phenylacetamido)cyclobutyl)-9H-purin-6-yl)amino)phenyl)piperazin-1-yl)methyl)cyclohexyl)methyl)piperidin-4-carboxamide] | 10% | 10% | 0% | 50% | 70% | 50%
O=C1CC[C@@H](c2ccc(OCC(=O)N3CCC(CN4CCN(c5ccc(Nc6ncnc7c6ncn7C6CC(NC(=O)Cc7ccccc7)C6)cc5)CC4)CC3)cc2)C(=O)N1 (stereo partly drawn) [Compound 202, N-((1s,3s)-3-(6-((4-(4-((1-(2-(4-(2,6-dioxopiperidin-3-yl)phenoxy)acetyl)piperidin-4-yl)methyl)piperazin-1-yl)phenyl)amino)-9H-purin-9-yl)cyclobutyl)-2-phenylacetamide] | 10% | 0% | 0% | 30% | 20% | 40%
O=C1CC[C@@H](c2ccc(OCC(=O)N3CCC(CC(=O)N4CCN(c5ccc(Nc6ncnc7c6ncn7C6CC(NC(=O)Cc7ccccc7)C6)cc5)CC4)CC3)cc2)C(=O)N1 (stereo partly drawn) [Compound 203, N-((1s,3s)-3-(6-((4-(4-(2-(1-(2-(4-(2,6-dioxopiperidin-3-yl)phenoxy)acetyl)piperidin-4-yl)acetyl)piperazin-1-yl)phenyl)amino)-9H-purin-9-yl)cyclobutyl)-2-phenylacetamide] | 20% | 0% | 0% | 70% | 40% | 70%
O=C1CC[C@H](N2C(=O)c3cccc(NCC(=O)N4CCC5(CC4)CC(N4CCN(c6ccc(Nc7ncnc8c7ncn8[C@H]7C[C@@H](NC(=O)Cc8ccccc8)C7)cc6)CC4)C5)c3C2=O)C(=O)N1 [Compound 204, N-((1s,3s)-3-(6-((4-(4-(7-((2-(2,6-dioxopiperidin-3-yl)-1,3-dioxoisoindolin-4-yl)glycyl)-7-azaspiro[3.5]nonan-2-yl)piperazin-1-yl)phenyl)amino)-9H-purin-9-yl)cyclobutyl)-2-phenylacetamide] | 0/0/0% | 0/0/0% | 0/0/0% | 20/20/20% | 20/20/20% | 20/20/20%

The next lines start with the values.

Enzyme degradation CDK9 (% remaining) @ 0.1 μM (CDK9) | Enzyme degradation CDK9 (% remaining) @ 1 μM (CDK9) | Enzyme degradation CDK9 (% remaining) @ 10 μM (CDK9) | Enzyme degradation CDK2 (% remaining) @ 0.1 μM (CDK2) | Enzyme degradation CDK2 (% remaining) @ 1 μM (CDK2) | Enzyme degradation CDK2 (% remaining) @ 10 μM (CDK2) | Compound
0/0/0% | 0/0/0% | 0/0/0% | 30/30/30% | 30/30/30% | 30/30/30% | O=C1CCC(c2ccc(OCC(=O)N3CCC4(CC3)CC(N3CCN(c5ccc(Nc6ncnc7c6ncn7[C@H]6C[C@@H](NC(=O)Cc7ccccc7)C6)cc5)CC3)C4)cc2)C(=O)N1 (stereo partly drawn) [Compound 205, N-((1s,3s)-3-(6-((4-(4-(7-(2-(4-(2,6-dioxopiperidin-3-yl)phenoxy)acetyl)-7-azaspiro[3.5]nonan-2-yl)piperazin-1-yl)phenyl)amino)-9H-purin-9-yl)cyclobutyl)-2-phenylacetamide]
0/0/0% | 0/0/0% | 0/0/0% | 20% | 20% | 10% | O=C1CCC(N2C(=O)c3cccc(OCC(=O)N4CCC5(CC4)CC(N4CCN(c6ccc(Nc7ncnc8c7ncn8[C@H]7C[C@@H](NC(=O)Cc8ccccc8)C7)cc6)CC4)C5)c3C2=O)C(=O)N1 (stereo partly drawn) [Compound 206, N-((1s,3s)-3-(6-((4-(4-(7-(2-((2-(2,6-dioxopiperidin-3-yl)-1,3-dioxoisoindolin-4-yl)oxy)acetyl)-7-azaspiro[3.5]nonan-2-yl)piperazin-1-yl)phenyl)amino)-9H-purin-9-yl)cyclobutyl)-2-phenylacetamide]
0/0/0% | 0/0/0% | 0/0/0% | 50% | 70% | 50% | O=C1CC[C@H](N2C(=O)c3ccc(NCC(=O)N4CCC5(CC4)CC(N4CCN(c6ccc(Nc7ncnc8c7ncn8[C@H]7C[C@@H](NC(=O)Cc8ccccc8)C7)cc6)CC4)C5)cc3C2=O)C(=O)N1 [Compound 207, N-((1s,3s)-3-(6-((4-(4-(7-((2-(2,6-dioxopiperidin-3-yl)-1,3-dioxoisoindolin-5-yl)glycyl)-7-azaspiro[3.5]nonan-2-yl)piperazin-1-yl)phenyl)amino)-9H-purin-9-yl)cyclobutyl)-2-phenylacetamide]
10% | 0% | 0% | 80% | 70% | 70% | O=C1CC[C@H](N2C(=O)c3ccc(OCC(=O)N4CCC5(CC4)CC(N4CCN(c6ccc(Nc7ncnc8c7ncn8[C@H]7C[C@@H](NC(=O)Cc8ccccc8)C7)cc6)CC4)C5)cc3C2=O)C(=O)N1 [Compound 208, N-((1s,3s)-3-(6-((4-(4-(7-(2-((2-(2,6-dioxopiperidin-3-yl)-1,3-dioxoisoindolin-5-yl)oxy)acetyl)-7-azaspiro[3.5]nonan-2-yl)piperazin-1-yl)phenyl)amino)-9H-purin-9-yl)cyclobutyl)-2-phenylacetamide]
30% | 20% | 10% | 70% | 60% | 30% | O=C1CC[C@H](N2C(=O)c3cccc(N4CCC5(CC4)CC(N4CCN(c6ccc(Nc7ncnc8c7ncn8[C@H]7C[C@@H](NC(=O)Cc8ccccc8)C7)cc6)CC4)C5)c3C2=O)C(=O)N1 [Compound 209, N-((1s,3s)-3-(6-((4-(4-(7-(2-(2,6-dioxopiperidin-3-yl)-1,3-dioxoisoindolin-4-yl)-7-azaspiro[3.5]nonan-2-yl)piperazin-1-yl)phenyl)amino)-9H-purin-9-yl)cyclobutyl)-2-phenylacetamide]
